Where two headings read alike, the source gives them in different places.
Key:
CB2 receptor = CB2 receptor (UniProt P47936); test: CB2 receptor binding affinity (Ki); settings: read-out: CB2 receptor Ki
Experimental: Some disclosed compounds were tested for CB1 and CB2 receptor binding affinity (Tables 1, 2, 3, 4, 5, 6). As used herein “binding affinity” is represented by the Ki value. The Ki value is the affinity constant and describes the affinity of the compound for the receptor. The lower the Ki value, the higher the affinity of the compound for the receptor. A detailed description of the methods used to test “binding affinity” of compounds is given in Makriyannis, et al., US 2007, 0135388 and in Papahatjis, et al. J. Med. Chem. (2007) 4048, the content of each of which is hereby incorporated by reference.

CB1 = CB1 (Rattus norvegicus, UniProt P20272); test: CB1 receptor binding affinity (Ki)
Chain of CB1 (P20272 whole entry): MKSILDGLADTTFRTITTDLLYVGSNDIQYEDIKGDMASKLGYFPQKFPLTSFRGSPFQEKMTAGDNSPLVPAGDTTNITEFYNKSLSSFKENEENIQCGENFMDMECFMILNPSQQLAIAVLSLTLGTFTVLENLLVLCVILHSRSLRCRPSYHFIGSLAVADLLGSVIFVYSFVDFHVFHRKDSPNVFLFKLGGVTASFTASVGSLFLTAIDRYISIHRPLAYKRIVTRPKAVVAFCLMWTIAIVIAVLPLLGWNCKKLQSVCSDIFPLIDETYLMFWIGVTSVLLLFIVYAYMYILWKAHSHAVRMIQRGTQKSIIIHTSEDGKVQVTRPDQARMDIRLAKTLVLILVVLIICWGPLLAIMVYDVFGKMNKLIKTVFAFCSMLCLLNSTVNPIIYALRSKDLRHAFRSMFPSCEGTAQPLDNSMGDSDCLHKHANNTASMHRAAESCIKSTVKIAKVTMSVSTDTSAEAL
Experimental: Some disclosed compounds were tested for CB1 and CB2 receptor binding affinity (Tables 1, 2, 3, 4, 5, 6). As used herein “binding affinity” is represented by the Ki value. The Ki value is the affinity constant and describes the affinity of the compound for the receptor. […] A detailed description of the methods used to test “binding affinity” of compounds is given in Makriyannis, et al., US 2007, 0135388 and in Papahatjis, et al. J. Med. Chem. (2007) 4048, the content of each of which is hereby incorporated by reference.

| Compound | Ki (CB2 receptor) | Ki (CB1) | Ki (CB1; read-out: CB1 receptor Ki) |
| --- | --- | --- | --- |
| C=C(C)C1CCC(O)CC1c1c(O)cc(C(C)(C)CCCCCC)cc1O [Compound 68, (1R,3R,4R)-3-[4-(1′,1′-Dimethylheptyl)-2,6-dihydroxyphenyl]-4-isopropenyl-1-hydroxycyclohexane] | 33 nM | > 1000 nM |  |
| C=C(C)[C@@H]1CC[C@@H](O)C[C@H]1c1c(O)cc(C23CC4CC(CC(C4)C2)C3)cc1O [Compound 55, (1R,3R,4R)-3-[4-(1-Adamantyl)-2,6-dihydroxyphenyl]-4-isopropenyl-1-hydroxycyclohexane] | 343 nM | 2400 nM |  |
| C=C(CO)[C@@H]1CC[C@@H](CO)C[C@H]1c1c(O)cc(C23CC4CC(CC(C4)C2)C3)cc1O [Compound 54.2, (1R,3R,4R)-3-[4-(1-Adamantyl)-2,6-dihydroxyphenyl]-4-[2′-(3′-hydroxyprop-1′-enyl)]-1-(hydroxymethyl)cyclohexane] | 185 nM | 4140 nM |  |
| C=C(C)[C@@H]1CC[C@@H](C(=O)O)C[C@H]1c1c(O)cc(C(C)(C)CCCCCC)cc1O [Compound 58.2, (1R,3R,4R)-3-[4-(1′,1′-Dimethylheptyl)-2,6-dihydroxyphenyl]-4-isopropenyl-1-carboxylylcyclohexane] | > 1000 nM | > 1000 nM |  |
| C=C(C)[C@@H]1CCC(COC(C)=O)=C[C@H]1c1c(O)cc(C(C)(C)CCCCCC)cc1O [Compound 31.2, 2-[(1R,6R)-3-(Acetoxymethyl)-6-(1-methylethenyl)-2-cyclohexen-1-yl]-5-(1,1-dimethylheptyl)resorcinol] | 375 nM | 221 nM |  |
| C=C(C)[C@H]1CCC(CO)=C[C@@H]1c1c(O)cc(C2(CCCCCBr)CCCC2)cc1O [Compound 4.7, 2-[(1S,6S)-3-(Hydroxymethyl)-6-(1-methylethenyl)-2-cyclohexen-1-yl]-5-[(5-bromopentyl)cyclopentyl)resorcinol] | 5 nM | 16 nM |  |
| C=C(C=O)[C@@H]1CC[C@@H](CO)C[C@H]1c1c(O)cc(C23CC4CC(CC(C4)C2)C3)cc1O [Compound 53.2, (1R,3R,4R)-3-[4-(1-Adamantyl)-2,6-dihydroxyphenyl]-4-[2′-(propenalyl)]-1-(hydroxymethyl)cyclohexane] | 20 nM | 1400 nM |  |
| C=C(C)[C@H]1CCC(COC(C)=O)=C[C@@H]1c1c(O)cc(C2(CCCCCC)CCCC2)cc1O [Compound 3.4, 2-[(1S,6S)-3-(Acetoxymethyl)-6-(1-methylethenyl)-2-cyclohexen-1-yl]-5-(1-hexyl-1-cyclopentyl)resorcinol] | 65 nM | 277 nM |  |
| C=C(C)[C@@H]1CC[C@@H](CO)C[C@H]1c1c(O)cc(C23CC4CC(CC(C4)C2)C3)cc1O [Compound 51.2, (1R,3R,4R)-3-[4-(1-Adamantyl)-2,6-dihydroxyphenyl]-4-isopropenyl-1-(hydroxymethyl)cyclohexane] | 16 nM | 910 nM |  |
| CC1=C[C@H](c2c(O)cc(C3(CCCCCBr)CCC3)cc2O)[C@@H]2C[C@H]1C2(C)C [Compound 40.8, (+)-2-[(1R,4S,5S)-2,6,6-trimethylbicylco[3.1.1]hept-2-en-4-yl]-5-[(5-bromopentyl)cyclobutyl]resorcinol] | 2.1 nM | 1 nM |  |
| C=C(C)[C@H]1CCC(COC(C)=O)=C[C@@H]1c1c(O)cc(C(C)(C)CCCCBr)cc1O [Compound 3.11, 2-[(1S,6S)-3-(Acetoxymethyl)-6-(1-methylethenyl)-2-cyclohexen-1-yl]-5-(6-bromo-2-methylhexan-2-yl)resorcinol] | 37 nM | 191 nM |  |
| C=C(C)[C@H]1CCC(C)=C[C@@H]1c1c(O)cc(CCCCC)cc1O [(+)-CBD, Cannabidiol, reference compound] | > 200 nM |  |  |
| C=C(C)[C@@H]1CCC(C)=C[C@H]1c1c(O)cc(CCCCC)cc1O [(−)-CBD, Cannabidiol, reference compound] | > 200 nM |  |  |
| C=C(C)[C@H]1CCC(COC(C)=O)=C[C@@H]1c1c(O)cc(C2(CCCCCBr)CCCC2)cc1O [Compound 3.7, 2-[(1S,6S)-3-(Acetoxymethyl)-6-(1-methylethenyl)-2-cyclohexen-1-yl]-5-[(5-bromopentyl)cyclopentyl)resorcinol] | 25 nM | 51 nM |  |
| C=C(C)[C@H]1CCC(COC(C)=O)=C[C@@H]1c1c(O)cc(C2(/C=C\CCCC)CCCC2)cc1O [Compound 3.5, 2-[(1S,6S)-3-(Acetoxymethyl)-6-(1-methylethenyl)-2-cyclohexen-1-yl]-5-[1-(1,2-cis-hexen-1-yl)-cyclopent-1-yl]resorcinol] | 12 nM | 71 nM |  |
| C=C(C)[C@H]1CCC(COC(C)=O)=C[C@@H]1c1c(O)cc(C2(CCCCCC)SCCS2)cc1O [Compound 3.6, 2-[(1S,6S)-3-(Acetoxymethyl)-6-(1-methylethenyl)-2-cyclohexen-1-yl]-5-(2-hexyl-1,3-dithiolane-2-yl)resorcinol] | 97 nM |  | 326 nM |
| 2-[(1S,6S)-3-(Hydroxymethyl)-6-(1-methylethenyl)-2-cyclohexen-1-yl]-5-[1-(1,2-cis-hexen-1-yl)-cyclopent-1-yl]resorcinol [Compound 4.5] | 2.7 nM |  | 29 nM |
| C=C(C)[C@H]1CCC(CO)=C[C@@H]1c1c(O)cc(C23CC4CC(CC(C4)C2)C3)cc1O [Compound 4.9, 2-[(1S,6S)-3-(Hydroxymethyl)-6-(1-methylethenyl)-2-cyclohexen-1-yl]-5-(1-adamantyl)resorcinol] | 49 nM | 449 nM |  |
| C=C(C)[C@@H]1CCC(=O)C[C@H]1c1c(O)cc(C23CC4CC(CC(C4)C2)C3)cc1O [Compound 48.2, (3R,4R)-3-[4-(1-Adamantyl)-2,6-dihydroxyphenyl]-4-isopropenylcyclohexan-1-one] | > 1000 nM | 694 nM |  |
| CC(C)[C@H]1CC[C@@H](CO)C[C@H]1c1c(O)cc(C23CC4CC(CC(C4)C2)C3)cc1O [Compound 56, (1R,3R,4R)-3-[4-(1-Adamantyl)-2,6-dihydroxyphenyl]-4-isopropyl-1-(hydroxymethyl)cyclohexane] | 23 nM | 998 nM |  |
| C=C(C)[C@H]1CCC(COC(C)=O)=C[C@@H]1c1c(O)cc(C2(CCCCCBr)CCC2)cc1O [Compound 3.8, 2-[(1S,6S)-3-(Acetoxymethyl)-6-(1-methylethenyl)-2-cyclohexen-1-yl]-5-[(5-bromopentyl)cyclobutyl)resorcinol] | 35 nM | 50 nM |  |
| C=C(C)[C@H]1CCC(COC(C)=O)=C[C@@H]1c1c(O)cc(C2(/C=C\CCCC)CCOCC2)cc1O [Compound 3.14, 2-[(1S,6S)-3-(Acetoxymethyl)-6-(1-methylethenyl)-2-cyclohexen-1-yl]-5-[1-(1,2-cis-hexen-1-yl)-tetrahydro-2H-pyran-4-yl]resorcinol] | 38 nM | 376 nM |  |
| C=C(C)[C@@H]1CCC(=COC)C[C@H]1c1c(O)cc(C23CC4CC(CC(C4)C2)C3)cc1O [Compound 49.2, (3R,4R)-3-[4-(1-Adamantyl)-2,6-dihydroxyphenyl]-4-isopropenyl-1-(methoxymethylene)cyclohexane] | 375 nM | 1760 nM |  |
| C=C(C)[C@H]1CCC(=O)C[C@@H]1c1c(O)cc(C(C)(C)CCCCCC)cc1O [Compound 66.2, (3S,4S)-3-[4-(1′,1′-Dimethylheptyl)-2,6-dihydroxyphenyl]-4-isopropenylcyclohexan-1-one] | 41 nM | 30 to 60 nM |  |
| C=C(C)[C@@H]1CC[C@@H](C(N)=O)C[C@H]1c1c(O)cc(C(C)(C)CCCCCC)cc1O [Compound 59.1, (1R,3R,4R)-3-[4-(1′,1′-Dimethylheptyl)-2,6-dihydroxyphenyl]-4-isopropenyl-1-carboxamidocyclohexane] | > 1000 nM | > 1000 nM |  |
| C=C(C)[C@@H]1CCC(=O)C[C@H]1c1c(O)cc(C(C)(C)CCCCCC)cc1O [Compound 61.2, (3R,4R)-3-[4-(1′,1′-Dimethylheptyl)-2,6-dihydroxyphenyl]-4-isopropenylcyclohexan-1-one] | 37 nM | > 1000 nM |  |
| C=C(C)[C@@H]1CCC(COC(C)=O)=C[C@H]1c1c(O)cc(C(C)(C)CCCCCCBr)cc1O [Compound 31.13, 2-[(1R,6R)-3-(Acetoxymethyl)-6-(1-methylethenyl)-2-cyclohexen-1-yl]-5-(8-bromo-2-methyloct-2-yl)resorcinol] | 171 nM | 205 nM |  |
| CCCCCc1cc(O)c([C@H]2C=C(C)[C@H]3C[C@@H]2C3(C)C)c(O)c1 [Compound 40.1, (+)-2-[(1R,4S,5S)-2,6,6-trimethylbicyclo[3.1.1]hept-2-en-4-yl]-5-pentyl-resorcinol, reference compound] | 47 nM | 671 nM |  |
| CC1=C[C@H](c2c(O)cc(C3(CCCCBr)CCC3)cc2O)[C@@H]2C[C@H]1C2(C)C [Compound 40.15, (+)-2-[(1R,4S,5S)-2,6,6-trimethylbicylco[3.1.1]hept-2-en-4-yl]-5-[(5-bromobutyl)cyclobutyl]resorcinol] | 1.9 nM | 11 nM |  |
| CCCC/C=C\C1(c2cc(O)c([C@H]3C=C(C)[C@H]4C[C@@H]3C4(C)C)c(O)c2)CCCC1 [Compound 40.5, (+)-2-[(1R,4S,5S)-2,6,6-trimethylbicylco[3.1.1]hept-2-en-4-yl]-5-[1-(1,2-cis-hexen-1-yl)-cyclopent-1-yl]resorcinol] | 6.6 nM | 13.4 nM |  |

— patent US9517989B2, “2-cycloalkyl resorcinol cannabinergic ligands” (priority 2012, dated 2016)
